Among the data in ChEMBL document CHEMBL4699409, “Synthesis, evaluation and molecular modelling of piceatannol analogues as arginase inhibitors” (RSC Med Chem, 2020) are IC50 and Ki values, retold here.

The target in assay [1] is T1, Arginase-1 (Bos taurus, UniProt Q2KJ64).
T1 sequence (Q2KJ64 whole entry): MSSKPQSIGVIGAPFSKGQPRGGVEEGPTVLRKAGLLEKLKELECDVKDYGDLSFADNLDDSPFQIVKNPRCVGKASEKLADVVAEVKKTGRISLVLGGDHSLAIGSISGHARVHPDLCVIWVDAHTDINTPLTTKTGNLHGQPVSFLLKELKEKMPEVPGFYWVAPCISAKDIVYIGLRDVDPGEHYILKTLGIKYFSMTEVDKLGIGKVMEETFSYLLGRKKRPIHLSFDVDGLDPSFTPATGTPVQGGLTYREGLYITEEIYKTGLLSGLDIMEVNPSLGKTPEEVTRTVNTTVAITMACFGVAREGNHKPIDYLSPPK
Nature of the assay: Inhibition of recombinant bovine liver ARGI using L-arginine as substrate incubated for 60 mins by spectroscopic analysis.

Assay [2] deals with T2, Arginase-1 (Homo sapiens, UniProt P05089).
T2 sequence (P05089 whole entry): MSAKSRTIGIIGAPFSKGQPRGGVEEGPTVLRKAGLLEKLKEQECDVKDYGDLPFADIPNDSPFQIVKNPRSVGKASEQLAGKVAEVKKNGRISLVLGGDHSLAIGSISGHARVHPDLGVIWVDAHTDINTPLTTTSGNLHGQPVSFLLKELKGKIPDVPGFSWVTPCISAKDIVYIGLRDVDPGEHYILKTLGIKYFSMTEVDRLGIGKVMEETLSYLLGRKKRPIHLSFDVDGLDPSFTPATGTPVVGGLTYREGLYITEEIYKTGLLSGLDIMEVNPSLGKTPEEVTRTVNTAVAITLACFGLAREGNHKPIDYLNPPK
In words: Inhibition of recombinant human ARG1 expressed in CHO-K1 cells assessed as reduction in urea level incubated for 24 hrs by colorimetric assay. It is filed as cell-based.

For assay [3], the target named is T1, Arginase-1. In words: Mixed type inhibition of recombinant bovine liver ARGI using L-arginine as substrate incubated for 60 mins by Dixon plot analysis.
Assay [4] deals with T1, Arginase-1. In words: Mixed type inhibition of recombinant bovine liver ARGI using L-arginine as substrate incubated for 60 mins by Lineweaver-Burk plot analysis.
Assay [5] addresses T1, Arginase-1. In words: Mixed type inhibition of recombinant bovine liver ARGI using L-arginine as substrate incubated for 60 mins by Cornish-Bowden plot analysis.
The target in assay [6] is T2, Arginase-1. In words: Inhibition of recombinant human liver ARGI using L-arginine as substrate incubated for 60 mins by spectroscopic analysis.

What is called IC50 is the concentration that gives 50% inhibition. The term Ki denotes the dissociation constant of the complex between target and ligand, obtained from inhibition or displacement.

On to `Oc1ccc(NCc2ccc(O)c(O)c2)cc1`, for which the concentration for half-maximal inhibition (IC50) in assay [1] worked out at 238 µM.
With `NCCCNCc1ccc(O)c(O)c1`, the IC50 in assay [1] turned out to be 343 µM.
Consider `O=C(O)/C=C/c1ccc(O)c(O)c1` [CAFFEIC ACID], for which the IC50 in assay [1] stood at 131 µM.
Regarding `Oc1ccc(CNCc2cccc(Cl)c2)cc1O`, in assay [1], the half-maximal inhibitory concentration (IC50) came to 329 µM.
Take `Oc1cccc(Br)c1O`: the IC50 in assay [1] is 274 µM.
Still for that read-out and setting: for `O=C(O)c1cc(NCc2ccc(O)c(O)c2)ccc1O` the value was 187 µM.
On the same count and under the same terms, for `CCOC(=O)C(NCc1ccc(O)c(O)c1)C(=O)OCC` the value was 362 µM.
With `Oc1ccc(CNCCN2CCOCC2)cc1O`, the IC50 in assay [1] was determined as 467 µM.
In the case of `Oc1ccc(CNCc2ccc3c(c2)OCO3)cc1O`, in assay [1], the 50% inhibitory concentration (IC50) was determined as 226 µM.
Turning to `O=C(O)c1cc(O)cc(NCc2ccc(O)c(O)c2)c1`, in assay [1], the half-inhibitory concentration (IC50) is 108 µM.
Same read-out and setting: the figure for `Oc1ccc(CNCCc2ccccc2)cc1O` is 367 µM.
With `N[C@@H](CCCCB(O)O)C(=O)O`, in assay [2], the 50% inhibitory concentration (IC50) turned out to be 16.8 µM.
On to `Oc1cccc(NCc2ccc(O)c(O)c2)c1`, for which the IC50 in assay [1] amounted to 83 µM.
On to `Oc1ccccc1O` [CATECHOL], for which the IC50 in assay [1] was found to be 123 µM.
Consider `Oc1ccc(CNCc2ccccc2)cc1O`, for which the IC50 in assay [1] is 145 µM.
Turning to `NCCc1ccc(O)c(O)c1` [DOPAMINE], in assay [1], the half-inhibitory concentration (IC50) was found to be 128 µM.
`OCc1ccc(O)c(O)c1`: the IC50 in assay [1] turned out to be 106 µM.
For the compound `COc1ccc(CNCc2ccc(O)c(O)c2)cc1`, the half-inhibitory concentration (IC50) in assay [1] was 389 µM.
In the case of `COc1ccc(NCc2ccc(O)c(O)c2)cc1`, in assay [1], the IC50 was found to be 154 µM.
Consider `Oc1ccc(CNCc2cc(Cl)cc(Cl)c2)cc1O`, for which, in assay [1], the IC50 is 277 µM.
As for `COc1cccc(NCc2ccc(O)c(O)c2)c1`, the 50% inhibitory concentration (IC50) in assay [1] worked out at 185 µM.
Consider `Oc1ccc(CNc2ccccc2)cc1O`, for which the 50% inhibitory concentration (IC50) in assay [1] was 164 µM.
With `NCc1ccc(O)c(O)c1`, in assay [1], the half-maximal inhibitory concentration (IC50) is 164 µM.
The same measure, in the same setting: the figure for `Oc1ccc(CNCCc2c[nH]cn2)cc1O` is 318 µM.
Same read-out and setting: for `Oc1cc(O)cc(NCc2ccc(O)c(O)c2)c1` the value was 141 µM; for `Oc1ccc(O)c(O)c1`, 360 µM.
Consider `Oc1ccc(CNc2ccc(O)c(O)c2)cc1O`, for which the Ki in assay [3], in assay [4] and in assay [5] was 82 µM throughout. Moreover, the half-inhibitory concentration (IC50) is 794 µM in assay [2], 89 µM in assay [6] and 76 µM in assay [1].
In the case of `Oc1cc(O)cc(/C=C/c2ccc(O)c(O)c2)c1` [PICEATANNOL], the inhibition constant (Ki) in assay [3], in assay [4] and in assay [5] was 136 µM each time. Further, the results for the IC50 in assay [2], in assay [6] and in assay [1] were 1180 µM, 69 µM and 47 µM, respectively.
Regarding `N=C(NO)NCC[C@H](N)C(=O)O` [NOR-NOHA], in assay [1], the half-inhibitory concentration (IC50) came out at 2.7 µM.
For `COc1cccc(CNCc2ccc(O)c(O)c2)c1`, the IC50 in assay [1] was found to be 300 µM.
`COC(=O)c1ccc(O)c(O)c1` [METHYL PROTOCATECHUATE]: the IC50 in assay [1] stood at 285 µM.
As for `Nc1ccc(O)c(O)c1`, the IC50 in assay [1] amounted to 478 µM.
